Source: ChEMBL document CHEMBL4673353, “Switching a Xanthine Oxidase Inhibitor to a Dual-Target Antagonist of P2Y and P2Y as an Oral Antiplatelet Agent with a Wider Therapeutic Window in Rats than Ticagrelor” (J Med Chem, 2020)
Calls of active or inactive are those of the source. The rule behind the calls is not given here.

Key:
[1] = target: Xanthine dehydrogenase/oxidase (Bos taurus, UniProt P80457); experiment: Inhibition of bovine xanthine oxidase assessed as reduction in uric acid formation at 10 uM using xanthine as substrate preincubated for 15 mins followed by substrate addition measured at 30 sec interval for upto 2 mins by spectrophotometric analysis relative to control; details: cattle, time 17 min
[2] = Tmax in male Sprague-Dawley rat at 10 mg/kg, iv administered as single dose by LC-MS analysis; format: ADME, organism-based; details: in vivo
[3] = target: T1, P2Y purinoceptor 12 (Homo sapiens, UniProt Q9H244); experiment: Antagonist activity at P2Y12 in human whole blood assessed as suppression of ADP-induced decrease in PGE1-induced VASP phosphorylation measured after 10 mins by immunostaining based flow cytometric analysis; format: tissue-based
[4] = Apparent volume of distribution in male Sprague-Dawley rat at 10 mg/kg, iv administered as single dose by LC-MS analysis; format: ADME, organism-based; details: in vivo, read-out: Vz
[5] = target: Cytochrome P450 2D6 (Homo sapiens, UniProt P10635); experiment: Inhibition of CYP2D6 in human liver microsomes using dextromethorphan as substrate preincubated for 5 mins followed by NADPH generating system addition and measured after 120 mins by LC-MS/MS; format: ADME
[6] = target: T2, Cytochrome P450 2A6 (Homo sapiens, UniProt P11509); experiment: Inhibition of CYP2A6 in human liver microsomes using coumarin as substrate preincubated for 5 mins followed by NADPH generating system addition and measured after 120 mins by LC-MS/MS; format: ADME
T2 sequence (P11509 whole entry): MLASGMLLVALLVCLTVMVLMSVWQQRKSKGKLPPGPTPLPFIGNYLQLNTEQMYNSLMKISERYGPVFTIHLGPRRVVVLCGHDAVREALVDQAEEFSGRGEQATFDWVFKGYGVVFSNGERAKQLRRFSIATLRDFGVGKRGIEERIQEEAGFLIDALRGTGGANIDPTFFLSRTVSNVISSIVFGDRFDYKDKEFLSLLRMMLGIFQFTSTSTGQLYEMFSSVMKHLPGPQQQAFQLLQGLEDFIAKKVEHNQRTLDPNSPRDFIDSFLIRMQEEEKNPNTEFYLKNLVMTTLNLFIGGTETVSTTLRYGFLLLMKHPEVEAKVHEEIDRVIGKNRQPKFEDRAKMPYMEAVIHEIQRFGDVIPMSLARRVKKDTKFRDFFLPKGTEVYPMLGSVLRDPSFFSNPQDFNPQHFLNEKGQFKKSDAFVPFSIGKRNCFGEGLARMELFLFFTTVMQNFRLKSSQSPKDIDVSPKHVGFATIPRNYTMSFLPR

[7] = Clearance in male Sprague-Dawley rat at 10 mg/kg, iv administered as single dose by LC-MS analysis; format: ADME, organism-based; details: in vivo
[8] = target: Cytochrome P450 3A4 (Homo sapiens, UniProt P08684); experiment: Inhibition of CYP3A4 in human liver microsomes using testosterone as substrate preincubated for 5 mins followed by NADPH generating system addition and measured after 120 mins by LC-MS/MS; format: ADME
[9] = target: Cytochrome P450 2E1 (Homo sapiens, UniProt P05181); experiment: Inhibition of CYP2E1 in human liver microsomes using chlorzoxazone as substrate preincubated for 5 mins followed by NADPH generating system addition and measured after 120 mins by LC-MS/MS; format: ADME
[10] = target: Cytochrome P450 2C19 (Homo sapiens, UniProt P33261); experiment: Inhibition of CYP2C19 in human liver microsomes using S-mephenytoin as substrate preincubated for 5 mins followed by NADPH generating system addition and measured after 120 mins by LC-MS/MS; format: ADME
[11] = target: T1, P2Y purinoceptor 12; experiment: Agonist activity at P2Y12 in human whole blood assessed as decrease in PGE1-induced VASP phosphorylation at 100 to 200 uM measured after 10 mins by immunostaining based flow cytometric analysis; format: tissue-based; details: dose 100-200 µM
[12] = test system: Rattus norvegicus; experiment: Antithrombotic activity in FeCl3-induced Sprague-Dawley rat model of arterial thrombosis assessed as reduction in thrombus weight at 20 mg/kg, po qd administered as single dose for 7 days and measured 2 hrs post last dose; format: functional; design: scale not given: the % may be the effect or the level left; details: time 7 day
[13] = test system: Rattus norvegicus; experiment: Antithrombotic activity in FeCl3-induced Sprague-Dawley rat model of arterial thrombosis assessed as reduction in thrombus weight at 10 mg/kg, po qd administered as single dose for 7 days and measured 2 hrs post last dose; format: functional; design: scale not given: the % may be the effect or the level left; details: time 7 day
[14] = Drug metabolism in rat liver microsomes assessed as 1-[(4-Cyanobenzyl)oxy]-2-(3-cyanophenyl)-4-methyl-1H-imidazole-5-carboxylic acid formation at 0.2 uM in presence of NADPH measured up to 90 mins by LC-MS/MS analysis; format: ADME, Microsome; details: 1.5 h
[15] = test system: Rattus norvegicus; experiment: Antithrombotic activity in FeCl3-induced Sprague-Dawley rat model of arterial thrombosis assessed as reduction in thrombus weight at 5 mg/kg, po qd administered as single dose for 7 days and measured 2 hrs post last dose; format: functional; design: scale not given: the % may be the effect or the level left; details: time 7 day
[16] = Metabolic stability of compound in rat liver microsomes assessed as intrinsic clearance per mg protein at 0.2 uM in presence of NADPH measured up to 90 mins by LC-MS/MS analysis; format: ADME, Microsome; details: 1.5 h
[17] = Toxicity in Sprague-Dawley rat model of tail-snip bleeding assessed as increase in bleeding time at 10 mg/kg, po administered via gavage as single dose measured within 2 hrs post tail snip relative to control; format: organism-based; details: in vivo
[18] = Drug metabolism in human liver microsome assessed as 1-[(4-Cyanobenzyl)oxy]-2-(3-cyanophenyl)-4-methyl-1H-imidazole-5-carboxylic acid formation at 0.2 uM in presence of NADPH measured up to 90 mins by LC-MS/MS analysis; format: ADME; details: microsomes, 1.5 h
[19] = Solubility of compound; format: physicochemical
[20] = Acute toxicity in Kunming mouse assessed as increase in body weight at 2000 mg/kg, ig administered as single dose monitored every day up to14 days; format: organism-based; details: in vivo, po, 336 h, time 14 day
[21] = Metabolic stability of compound in human liver microsomes assessed as intrinsic clearance per mg protein at 0.2 uM in presence of NADPH measured up to 90 mins by LC-MS/MS analysis; format: ADME, Microsome; details: 1.5 h
[22] = Toxicity in Sprague-Dawley rat model of tail-snip bleeding assessed as bleeding time at 10 mg/kg, po administered via gavage as single dose measured within 2 hrs post tail snip (reference value: 17.69 min); format: organism-based; details: in vivo
[23] = test system: Rattus norvegicus; experiment: Antithrombotic activity in FeCl3-induced Sprague-Dawley rat model of arterial thrombosis assessed as reduction in thrombus weight administered orally once daily for 7 days and measured 2 hrs post last dose; format: functional; details: dose 5-20 mg/kg
[24] = Toxicity in Sprague-Dawley rat model of tail snip bleeding assessed as increase in bleeding weight at 10 mg/kg, po administered via gavage as single dose measured within 2 hrs post tail snip relative to control; format: organism-based; details: in vivo

T1 sequence (Q9H244 whole entry): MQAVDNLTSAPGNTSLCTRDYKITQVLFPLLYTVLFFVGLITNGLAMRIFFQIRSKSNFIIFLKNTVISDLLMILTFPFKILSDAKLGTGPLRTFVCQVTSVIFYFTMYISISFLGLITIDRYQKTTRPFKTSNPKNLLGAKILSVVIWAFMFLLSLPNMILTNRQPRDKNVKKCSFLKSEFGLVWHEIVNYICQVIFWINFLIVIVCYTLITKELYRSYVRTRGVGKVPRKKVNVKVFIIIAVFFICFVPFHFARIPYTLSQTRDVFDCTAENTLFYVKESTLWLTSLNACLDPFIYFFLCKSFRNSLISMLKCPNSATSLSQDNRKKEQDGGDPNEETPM
Chain of Cytochrome P450 2C19 (P33261 whole entry): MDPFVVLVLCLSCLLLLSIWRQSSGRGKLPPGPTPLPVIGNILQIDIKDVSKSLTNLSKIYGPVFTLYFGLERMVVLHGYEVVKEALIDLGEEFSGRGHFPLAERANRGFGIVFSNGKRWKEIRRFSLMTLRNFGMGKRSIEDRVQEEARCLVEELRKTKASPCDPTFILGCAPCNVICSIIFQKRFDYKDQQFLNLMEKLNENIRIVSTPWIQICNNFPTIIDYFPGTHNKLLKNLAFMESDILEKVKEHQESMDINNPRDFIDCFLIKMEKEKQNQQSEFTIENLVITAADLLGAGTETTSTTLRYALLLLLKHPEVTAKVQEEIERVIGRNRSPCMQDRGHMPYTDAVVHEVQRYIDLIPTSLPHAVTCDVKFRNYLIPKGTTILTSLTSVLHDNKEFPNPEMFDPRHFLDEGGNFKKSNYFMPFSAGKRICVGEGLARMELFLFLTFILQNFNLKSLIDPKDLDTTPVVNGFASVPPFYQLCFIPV
Chain of Cytochrome P450 2D6 (P10635 whole entry): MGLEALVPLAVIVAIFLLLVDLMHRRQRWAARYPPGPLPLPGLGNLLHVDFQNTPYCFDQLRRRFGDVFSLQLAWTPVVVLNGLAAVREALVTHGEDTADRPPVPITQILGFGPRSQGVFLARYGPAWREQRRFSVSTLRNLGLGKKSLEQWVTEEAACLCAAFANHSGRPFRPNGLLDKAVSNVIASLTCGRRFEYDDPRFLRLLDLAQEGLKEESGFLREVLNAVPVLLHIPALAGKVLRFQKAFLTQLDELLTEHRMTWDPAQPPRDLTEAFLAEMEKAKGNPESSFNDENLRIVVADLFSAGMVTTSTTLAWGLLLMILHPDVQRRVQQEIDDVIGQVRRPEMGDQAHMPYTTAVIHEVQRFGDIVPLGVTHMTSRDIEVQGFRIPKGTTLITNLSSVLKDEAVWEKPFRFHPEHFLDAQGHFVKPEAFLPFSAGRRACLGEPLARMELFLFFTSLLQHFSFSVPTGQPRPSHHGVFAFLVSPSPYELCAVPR
Chain of Cytochrome P450 3A4 (P08684 whole entry): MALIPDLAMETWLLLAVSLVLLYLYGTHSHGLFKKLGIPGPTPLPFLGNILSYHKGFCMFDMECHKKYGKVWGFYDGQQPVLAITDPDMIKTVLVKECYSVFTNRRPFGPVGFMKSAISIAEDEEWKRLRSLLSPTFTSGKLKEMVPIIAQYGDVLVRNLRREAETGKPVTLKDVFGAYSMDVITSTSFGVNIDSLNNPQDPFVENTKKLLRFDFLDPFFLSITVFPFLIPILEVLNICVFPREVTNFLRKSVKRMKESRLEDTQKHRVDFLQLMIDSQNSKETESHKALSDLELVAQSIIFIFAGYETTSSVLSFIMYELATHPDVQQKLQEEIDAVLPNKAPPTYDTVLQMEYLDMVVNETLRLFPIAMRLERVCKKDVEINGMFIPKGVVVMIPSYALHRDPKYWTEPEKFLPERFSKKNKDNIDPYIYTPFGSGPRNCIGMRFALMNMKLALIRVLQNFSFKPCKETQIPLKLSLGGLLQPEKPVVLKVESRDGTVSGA
Chain of Xanthine dehydrogenase/oxidase (P80457 whole entry): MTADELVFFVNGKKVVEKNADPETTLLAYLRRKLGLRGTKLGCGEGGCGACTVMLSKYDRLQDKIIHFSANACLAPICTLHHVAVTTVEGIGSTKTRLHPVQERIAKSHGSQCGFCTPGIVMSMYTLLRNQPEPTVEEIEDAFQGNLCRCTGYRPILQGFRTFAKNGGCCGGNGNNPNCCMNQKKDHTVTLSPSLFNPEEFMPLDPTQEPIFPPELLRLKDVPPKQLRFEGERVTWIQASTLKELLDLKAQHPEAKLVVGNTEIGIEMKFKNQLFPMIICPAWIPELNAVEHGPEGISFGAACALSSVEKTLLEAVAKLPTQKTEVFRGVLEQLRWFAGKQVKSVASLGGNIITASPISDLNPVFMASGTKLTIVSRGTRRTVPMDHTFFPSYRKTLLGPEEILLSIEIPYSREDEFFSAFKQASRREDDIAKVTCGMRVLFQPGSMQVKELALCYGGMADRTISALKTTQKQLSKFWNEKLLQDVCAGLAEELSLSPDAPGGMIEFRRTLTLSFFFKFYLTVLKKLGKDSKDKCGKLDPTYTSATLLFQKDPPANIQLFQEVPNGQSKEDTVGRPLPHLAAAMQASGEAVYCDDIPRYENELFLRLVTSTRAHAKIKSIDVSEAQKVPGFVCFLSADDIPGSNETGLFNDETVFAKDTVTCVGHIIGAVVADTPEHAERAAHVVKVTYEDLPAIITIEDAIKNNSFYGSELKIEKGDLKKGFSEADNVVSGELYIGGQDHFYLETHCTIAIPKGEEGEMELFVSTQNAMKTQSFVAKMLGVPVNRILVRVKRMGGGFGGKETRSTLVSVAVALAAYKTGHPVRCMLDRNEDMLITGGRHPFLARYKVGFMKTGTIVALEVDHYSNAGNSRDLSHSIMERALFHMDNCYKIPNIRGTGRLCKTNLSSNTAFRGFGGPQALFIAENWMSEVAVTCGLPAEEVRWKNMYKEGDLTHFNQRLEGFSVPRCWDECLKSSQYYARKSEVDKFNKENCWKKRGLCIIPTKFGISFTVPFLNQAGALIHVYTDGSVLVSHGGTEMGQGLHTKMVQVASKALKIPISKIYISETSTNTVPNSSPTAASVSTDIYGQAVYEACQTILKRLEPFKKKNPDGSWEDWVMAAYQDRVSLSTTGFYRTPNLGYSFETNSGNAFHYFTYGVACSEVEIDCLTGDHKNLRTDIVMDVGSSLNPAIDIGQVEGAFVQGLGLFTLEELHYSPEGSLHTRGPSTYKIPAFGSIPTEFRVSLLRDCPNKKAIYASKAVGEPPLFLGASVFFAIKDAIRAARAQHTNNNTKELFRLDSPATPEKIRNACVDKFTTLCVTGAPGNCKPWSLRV
Chain of Cytochrome P450 2E1 (P05181 whole entry): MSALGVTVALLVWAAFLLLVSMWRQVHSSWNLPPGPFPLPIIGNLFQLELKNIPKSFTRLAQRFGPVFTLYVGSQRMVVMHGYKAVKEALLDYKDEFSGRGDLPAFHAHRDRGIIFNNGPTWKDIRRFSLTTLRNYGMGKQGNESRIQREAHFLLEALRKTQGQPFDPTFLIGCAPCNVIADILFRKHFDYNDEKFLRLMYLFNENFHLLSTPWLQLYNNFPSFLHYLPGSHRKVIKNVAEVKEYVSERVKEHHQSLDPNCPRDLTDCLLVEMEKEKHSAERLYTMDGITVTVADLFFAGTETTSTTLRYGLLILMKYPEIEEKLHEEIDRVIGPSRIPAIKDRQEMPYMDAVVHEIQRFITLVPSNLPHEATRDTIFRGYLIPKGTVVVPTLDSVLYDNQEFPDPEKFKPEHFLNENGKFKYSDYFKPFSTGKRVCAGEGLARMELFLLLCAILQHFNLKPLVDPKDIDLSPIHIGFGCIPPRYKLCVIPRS

## Cc1nc(-c2cccc(C#N)c2)n(OCc2ccc(C#N)cc2)c1C(=O)O
[1]
  inhibition at 10 µM: < 50%
[2]
  Tmax: 8.4 min
[3]
  IC50: 149 µM
[4]
  Vd: 21.3 L/kg
[5]
  IC50: > 10 µM
[6]
  IC50: > 10 µM
[7]
  clearance: 50.5 mL/min/kg
[8]
  IC50: > 10 µM
[9]
  IC50: > 10 µM
[10]
  IC50: > 10 µM
[11]
  Activity: inactive

## CCOC(=O)c1c(C)nc(-c2cccc(C#N)c2)n1OCc1ccc(C#N)cc1
[12]
  Activity: 46.7%
[13]
  Activity: 40.7%
[14]
  Drug metabolism: Metabolite_Detected
[15]
  Activity: 22.6%
[16]
  CLH: 0.06 mL/min
[17]
  fold change (FC): 1.92
[18]
  Drug metabolism: Metabolite_Detected
[19]
  solubility: Insoluble
[20]
  Activity: Non-Toxic
[21]
  CLH: 0.011 mL/min
[22]
  Time: 33.94 min
[23]; time 7.0 day
  Activity: Dose-dependent effect
[23]; po, 168 h, time 7 day
  ED50: 20.8 mg/kg
[24]
  fold change (FC): 5
